According to paper PMC5119973 (Cancer Medicine, 2016):
Where “and” joins values, the source holds several entries; their conditions need not be identical. Identical values can stand only once.

Legend:
Test in all cases: KINOMEscan active-site competitive binding assay
Conditions in all cases: slash = two separate measurements
EPHA6 = target: T1, EPHA6 (Homo sapiens, UniProt Q9UF33)
T1 construct: purchased DiscoveRx (KINOMEscan service)
T1 sequence (Q9UF33 23-1036): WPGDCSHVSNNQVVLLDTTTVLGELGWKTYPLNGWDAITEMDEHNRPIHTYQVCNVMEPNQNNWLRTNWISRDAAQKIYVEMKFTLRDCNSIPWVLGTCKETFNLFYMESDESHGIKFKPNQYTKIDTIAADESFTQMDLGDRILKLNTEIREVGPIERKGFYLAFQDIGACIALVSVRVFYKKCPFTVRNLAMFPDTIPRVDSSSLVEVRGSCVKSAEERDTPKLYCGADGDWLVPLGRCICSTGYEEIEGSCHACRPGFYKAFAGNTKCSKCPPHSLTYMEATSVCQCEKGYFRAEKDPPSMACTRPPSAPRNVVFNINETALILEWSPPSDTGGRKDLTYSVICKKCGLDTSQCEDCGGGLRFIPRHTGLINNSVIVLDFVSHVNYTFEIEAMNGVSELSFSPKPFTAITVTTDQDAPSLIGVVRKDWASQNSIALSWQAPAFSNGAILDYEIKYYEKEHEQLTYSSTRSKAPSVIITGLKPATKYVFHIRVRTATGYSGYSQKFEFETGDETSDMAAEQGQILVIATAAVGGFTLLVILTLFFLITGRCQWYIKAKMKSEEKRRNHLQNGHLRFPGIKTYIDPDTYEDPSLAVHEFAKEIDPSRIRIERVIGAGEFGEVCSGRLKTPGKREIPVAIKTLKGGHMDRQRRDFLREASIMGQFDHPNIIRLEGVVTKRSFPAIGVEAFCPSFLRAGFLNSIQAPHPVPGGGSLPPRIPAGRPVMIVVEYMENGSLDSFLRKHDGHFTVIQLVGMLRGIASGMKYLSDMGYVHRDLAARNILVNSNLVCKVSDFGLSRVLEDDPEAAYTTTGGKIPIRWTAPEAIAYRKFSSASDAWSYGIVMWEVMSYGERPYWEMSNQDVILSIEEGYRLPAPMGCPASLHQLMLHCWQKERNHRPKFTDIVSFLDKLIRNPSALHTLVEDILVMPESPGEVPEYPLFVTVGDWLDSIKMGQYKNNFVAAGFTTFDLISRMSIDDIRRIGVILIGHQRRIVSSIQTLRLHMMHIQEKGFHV

HIPK4 = target: T2, HIPK4 (Homo sapiens, UniProt Q8NE63)
T2 construct: purchased DiscoveRx (KINOMEscan service)
T2 sequence (Q8NE63 1-616): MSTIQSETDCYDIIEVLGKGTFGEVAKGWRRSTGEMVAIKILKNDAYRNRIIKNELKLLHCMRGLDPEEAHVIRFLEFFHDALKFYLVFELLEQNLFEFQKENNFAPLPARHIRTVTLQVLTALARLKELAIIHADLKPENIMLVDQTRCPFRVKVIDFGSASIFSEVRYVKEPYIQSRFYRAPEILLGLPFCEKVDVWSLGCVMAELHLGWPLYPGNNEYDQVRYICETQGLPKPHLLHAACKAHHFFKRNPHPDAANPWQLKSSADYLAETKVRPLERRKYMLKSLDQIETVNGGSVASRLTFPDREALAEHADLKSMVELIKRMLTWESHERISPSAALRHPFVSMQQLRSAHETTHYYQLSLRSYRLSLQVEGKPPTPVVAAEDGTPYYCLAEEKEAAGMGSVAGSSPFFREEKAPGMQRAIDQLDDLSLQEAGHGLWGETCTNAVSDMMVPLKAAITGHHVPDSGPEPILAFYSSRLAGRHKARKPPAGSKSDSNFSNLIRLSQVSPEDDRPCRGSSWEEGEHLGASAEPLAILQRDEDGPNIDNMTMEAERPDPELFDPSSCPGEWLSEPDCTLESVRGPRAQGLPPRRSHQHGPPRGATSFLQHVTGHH

MAP4K4 = target: T3, MAP4K4 (Homo sapiens, UniProt O95819)
T3 construct: purchased DiscoveRx (KINOMEscan service)
T3 sequence (O95819 whole entry): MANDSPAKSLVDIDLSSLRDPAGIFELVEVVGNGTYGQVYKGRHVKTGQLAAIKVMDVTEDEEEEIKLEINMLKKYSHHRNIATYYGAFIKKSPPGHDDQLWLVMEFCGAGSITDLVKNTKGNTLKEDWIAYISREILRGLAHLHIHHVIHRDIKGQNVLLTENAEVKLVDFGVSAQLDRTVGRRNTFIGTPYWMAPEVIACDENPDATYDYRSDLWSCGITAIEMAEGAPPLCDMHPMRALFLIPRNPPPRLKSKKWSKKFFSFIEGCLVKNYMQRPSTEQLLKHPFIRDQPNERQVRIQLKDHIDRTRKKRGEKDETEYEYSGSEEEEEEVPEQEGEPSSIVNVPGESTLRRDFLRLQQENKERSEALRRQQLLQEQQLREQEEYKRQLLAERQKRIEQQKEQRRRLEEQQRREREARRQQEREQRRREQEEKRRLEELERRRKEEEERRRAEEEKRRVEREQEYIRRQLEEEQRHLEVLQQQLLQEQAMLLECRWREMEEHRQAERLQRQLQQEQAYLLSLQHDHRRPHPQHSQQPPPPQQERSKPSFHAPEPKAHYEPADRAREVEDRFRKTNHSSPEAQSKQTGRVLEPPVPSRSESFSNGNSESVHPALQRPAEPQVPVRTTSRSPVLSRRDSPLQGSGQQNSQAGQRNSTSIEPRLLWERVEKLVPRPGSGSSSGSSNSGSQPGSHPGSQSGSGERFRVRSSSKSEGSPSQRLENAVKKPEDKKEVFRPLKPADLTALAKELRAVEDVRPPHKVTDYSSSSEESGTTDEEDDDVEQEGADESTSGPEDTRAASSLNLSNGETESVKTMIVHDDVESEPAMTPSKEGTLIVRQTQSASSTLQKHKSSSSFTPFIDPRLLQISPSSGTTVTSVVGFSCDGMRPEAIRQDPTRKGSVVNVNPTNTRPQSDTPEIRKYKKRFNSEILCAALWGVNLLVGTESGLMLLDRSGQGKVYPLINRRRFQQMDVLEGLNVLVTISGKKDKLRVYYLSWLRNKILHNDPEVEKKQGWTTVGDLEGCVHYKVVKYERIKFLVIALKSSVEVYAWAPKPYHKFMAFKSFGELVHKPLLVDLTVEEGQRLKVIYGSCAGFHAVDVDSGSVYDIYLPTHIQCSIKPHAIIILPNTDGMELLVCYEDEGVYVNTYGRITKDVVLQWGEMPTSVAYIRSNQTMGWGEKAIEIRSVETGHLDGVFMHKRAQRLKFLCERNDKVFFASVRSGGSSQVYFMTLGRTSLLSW

MUSK = target: T4, MUSK (Homo sapiens, UniProt O15146)
T4 construct: purchased DiscoveRx (KINOMEscan service)
T4 sequence (O15146 24-869): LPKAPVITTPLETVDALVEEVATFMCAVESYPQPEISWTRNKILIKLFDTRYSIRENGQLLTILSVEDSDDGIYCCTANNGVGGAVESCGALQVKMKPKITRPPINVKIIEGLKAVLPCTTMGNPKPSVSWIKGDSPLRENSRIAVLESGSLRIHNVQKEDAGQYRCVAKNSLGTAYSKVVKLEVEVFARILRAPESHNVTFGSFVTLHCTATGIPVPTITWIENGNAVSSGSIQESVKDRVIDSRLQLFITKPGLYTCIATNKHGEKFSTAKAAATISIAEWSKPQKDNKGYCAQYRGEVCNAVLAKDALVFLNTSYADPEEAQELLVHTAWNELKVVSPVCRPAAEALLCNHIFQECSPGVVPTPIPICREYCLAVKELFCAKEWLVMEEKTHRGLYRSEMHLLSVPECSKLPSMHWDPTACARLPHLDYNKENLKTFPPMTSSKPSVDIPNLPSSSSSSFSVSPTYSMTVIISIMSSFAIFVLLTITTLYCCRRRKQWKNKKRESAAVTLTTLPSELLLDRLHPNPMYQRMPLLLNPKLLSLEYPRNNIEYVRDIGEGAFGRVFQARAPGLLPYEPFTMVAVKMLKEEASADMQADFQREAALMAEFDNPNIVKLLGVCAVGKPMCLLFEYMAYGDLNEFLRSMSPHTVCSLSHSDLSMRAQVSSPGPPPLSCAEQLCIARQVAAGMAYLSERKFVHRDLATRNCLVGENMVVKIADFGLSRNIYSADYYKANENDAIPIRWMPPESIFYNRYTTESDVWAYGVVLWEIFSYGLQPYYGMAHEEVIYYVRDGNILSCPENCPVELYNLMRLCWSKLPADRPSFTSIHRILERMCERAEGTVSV

Structure (SMILES) | Kd (EPHA6) | Kd (HIPK4) | Kd (MAP4K4) | Kd (MUSK)
CNC(=O)c1cc(Oc2ccc(NC(=O)Nc3ccc(Cl)c(C(F)(F)F)c3)c(F)c2)cc[n+]1[O-] [M‐2] | 210 nM | 15 nM | 42 nM | 140 nM
CNC(=O)c1cc(Oc2ccc(NC(=O)Nc3ccc(Cl)c(C(F)(F)F)c3)c(F)c2)ccn1 [Regorafenib, reference compound] | 48 nM and 23 nM | 6.9 nM and 4.5 nM | 450 nM and 400 nM | 68 nM and 67 nM
NC(=O)c1cc(Oc2ccc(NC(=O)Nc3ccc(Cl)c(C(F)(F)F)c3)c(F)c2)cc[n+]1[O-] [M‐5] | 640 nM | 26 nM | 89 nM | 140 nM
